Measurements taken from paper PMC9000871, “Rhodamine 101 Conjugates of Triterpenoic Amides Are of Comparable Cytotoxicity as Their Rhodamine B Analogs” (Molecules, 2022).

Experiments:
[1] = test system: FaDu (hypopharyngeal carcinoma); experiment: SRB cytotoxicity assay, FaDu; type: cell-based; conditions: Homo sapiens, 72 h of treatment, mean ± standard mean error
From the text: (§1) The cell lines were obtained from Department of Oncology (Martin-Luther-University Halle Wittenberg; they were bought from ATCC; A 375 (CRL-1619), HT29 (HTB-38), MCF7 (HTM-22), A2780 (HTP-77), FaDu (HTP-43), NIH 3T3 (CRL-1658), HEK-293 (CRL-1573)). Cultures were maintained as monolayers in RPMI 1640 medium with L-glutamine (Capricorn Scientific GmbH, Ebsdorfergrund, Germany) supplemented with 10% heat inactivated fetal bovine serum (Sigma-Aldrich Chemie GmbH, Steinheim, Germany) and penicillin/streptomycin (1%, Capricorn Scientific GmbH, Ebsdorfergrund, Germany) at 37 °C in a humidified atmosphere with 5% CO2. The cytotoxicity of the compounds was evaluated using the sulforhodamine-B (Kiton-Red S, ABCR) micro culture colorimetric assay using confluent cells in 96-well plates with the seeding of the cells on day 0 applying appropriate cell densities to prevent confluence of the cells during the period of the experiment. On day 1, the cells were treated with six different concentrations (1, 3, 7, 12, 20, and 30 μM); thereby, the final concentration of DMSO was always <0.5%, generally regarded as non-toxic to the cells. On day 4, the supernatant medium was discarded; the cells were fixed with 10% trichloroacetic acid. After another day at 4 °C, the cells were washed in a strip washer and dyed with the SRB solution (100 μL, 0.4% in 1% acetic acid) for about 20 min to be followed by washing of the plates (four times, 1% acetic acid) and air-drying overnight. Furthermore, tris base solution (200 μL, 10 mM) was added to each well and absorbance was measured at λ = 570 nm employing a reader (96 wells, Tecan Spectra, Crailsheim, Germany). The EC50 values were averaged from three independent experiments performed each in triplicate calculated from semi logarithmic dose response curves applying a non-linear four-parameter Hills-slope equation (GraphPad Prism5; variables top and bottom were set to 100 and 0, respectively).

[2] = test system: A2780 (ovarian carcinoma); experiment: SRB cytotoxicity assay, A2780; type: cell-based; conditions: Homo sapiens, 72 h of treatment, mean ± standard mean error
From the text: as §1

[3] = test system: NIH 3T3 (fibroblasts), non-malignant; experiment: SRB cytotoxicity assay, NIH 3T3; type: cell-based; conditions: Mus musculus, mean ± standard mean error
From the text: as §1

[4] = test system: MCF-7 (breast adenocarcinoma); experiment: SRB cytotoxicity assay, MCF-7; type: cell-based; conditions: Homo sapiens, MCF7, 72 h of treatment, mean ± standard mean error
From the text: as §1

[5] = test system: A375 (melanoma); experiment: SRB cytotoxicity assay, A375; type: cell-based, human; conditions: mean ± standard mean error
From the text: as §1

[6] = test system: HT29 (colon adenocarcinoma); experiment: SRB cytotoxicity assay, HT29; type: cell-based, human; conditions: Homo sapiens, mean ± standard mean error
From the text: as §1

[7] = test system: human tumor cell lines (A375, HT29, MCF-7, A2780, FaDu); experiment: SRB cytotoxicity assay, statements across the cell line panel; type: cell-based; conditions: span over all cell lines tested, cut-off of the assay 30 µM
From the text: as §1, with “On day 1, the cells were treated with six different concentrations (1, 3, 7, 12, 20, and 30 μM); thereby, the final concentration of DMSO was always <0.5%, generally regarded as non-toxic to the cells. On day 4, the supernatant medium was discarded; the cells were fixed with 10% trichloroacetic acid. After another day at 4 °C, the cells were washed in a strip washer and dyed with the SRB solution (100 μL, 0.4% in 1% acetic acid) for about 20 min to be followed by washing of the plates (four times, 1% acetic acid) and air-drying overnight.” left out

[8] = test system: HeLa (cervical cancer); experiment: SRB cytotoxicity assay, HeLa; type: cell-based; conditions: Homo sapiens, 72 h of treatment, mean ± standard mean error
[9] = test system: HEK293 (human embryonic kidney), non-malignant; experiment: SRB cytotoxicity assay, HEK293; type: cell-based; conditions: 72 h of treatment, mean ± standard mean error
From the text: as §1

[10] = NIH3T3, 72 h, 72 h of treatment
[11] = Homo sapiens, A-375, 72 h, 72 h of treatment

| melting point [°C] | SMILES | EC50 [1] [µM] | EC50 [2] [µM] | EC50 [3, 10] [µM] | EC50 [4] [µM] | EC50 [5, 11] [µM] | EC50 ([6]; HT-29, 72 h, 72 h of treatment) [µM] | EC50 ([5]; 72 h of treatment) [µM] | EC50 values across the cell lines [7] | EC50 [8] [µM] | EC50 [9] [µM] | EC50 ([3]; NIH3T3, 72 h of treatment) [µM] | EC50 ([5]; Homo sapiens, A-375, 72 h of treatment) [µM] | EC50 ([6]; HT-29, 72 h of treatment) [µM] |
| --- | --- | --- | --- | --- | --- | --- | --- | --- | --- | --- | --- | --- | --- | --- |
| – | CC(=O)[C@@H]1CC[C@]2(C(=O)O)CC[C@]3(C)[C@H](CC[C@@H]4[C@@]5(C)CC[C@H](O)C(C)(C)[C@@H]5CC[C@]43C)[C@@H]12 [PA, platanic acid, reference compound] | > 30 | > 30 | > 30 | > 30 | > 30 | > 30 | – | – | – | – | – | – | – |
| – | C=C(C)[C@@H]1CC[C@]2(C(=O)O)CC[C@]3(C)[C@H](CC[C@@H]4[C@@]5(C)CC[C@H](OC(C)=O)C(C)(C)[C@@H]5CC[C@]43C)[C@@H]12 [compound 1, 3β-Acetyloxy-lup-20(29)-en-28-oic Acid] | 7.2 ± 1.2 | 18.3 ± 0.5 | > 30 | 11 ± 0.5 | 21.3 | 21.3 ± 2 | 19.2 ± 1.7 | – | – | – | – | – | – |
| – | COc1cccc2c1C(=O)c1c(O)c3c(c(O)c1C2=O)C[C@@](O)(C(=O)CO)C[C@@H]3O[C@H]1C[C@H](N)[C@H](O)[C@H](C)O1 [DX, doxorubicin, reference compound] | 1.7 ± 0.3 | 0.02 ± 0.01 | – | 1.1 ± 0.3 | – | 0.9 ± 0.2 | – | – | – | – | – | – | – |
| – | CC(=O)O[C@H]1CC[C@@]2(C)C(CC[C@]3(C)C2CCC2C4[C@H](C(C)=O)CC[C@]4(C(=O)O)CC[C@]23C)C1(C)C (stereo partly drawn) [compound 4, 3β-Acetyloxy-20-oxo-30-norlupan-28-oic Acid] | > 30 | > 30 | > 30 | > 30 | > 30 | > 30 | – | not cytotoxic at all within the limits of the assay | – | – | – | – | – |
| 187 to 190 | CC(=O)O[C@H]1CC[C@@]2(C)C(CC[C@]3(C)C2CC=C2C4[C@@H](C)[C@H](C)CC[C@]4(C(=O)N4CCNCC4)CC[C@]23C)C1(C)C (stereo partly drawn) [compound 7, 3β-Acetyloxy-28-(1-piperazinyl)-urs-12-en-28-one] | – | 2.1 ± 0.1 | 2.1 ± 0.1 | 1.7 ± 0.2 | 2 ± 0.4 | 1.9 ± 0.3 | – | – | – | – | – | – | – |
| – | C=C(C)[C@@H]1CC[C@]2(C(=O)O)CC[C@]3(C)[C@H](CC[C@@H]4[C@@]5(C)CC[C@H](O)C(C)(C)[C@@H]5CC[C@]43C)[C@@H]12 [BA, betulinic acid, reference compound] | 13.7 ± 0.9 | 8.8 ± 0.9 | 16.1 ± 1.4 | 10.2 ± 1.2 | 17.7 ± 0.4 | 14.4 ± 2.3 | – | – | – | – | – | – | – |
| – | CC(=O)O[C@H]1CC[C@@]2(C)C(CC[C@]3(C)C2CCC2C4[C@H](C(C)=O)CC[C@]4(C(=O)N4CCCN(C(=O)c5ccccc5C5=c6cc7c8c(c6Oc6c5cc5c9c6CCCN9CCC5)CCC[N+]=8CCC7)CC4)CC[C@]23C)C1(C)C (some centres unmarked) [compound 28] | – | 0.17 ± 0.04 | 0.39 ± 0.05 | 0.2 ± 0.05 | 0.2 ± 0.03 | 0.35 ± 0.05 | – | – | 0.31 ± 0.15 | 0.12 ± 0.03 | – | – | – |
| 182 to 185 | CC(=O)O[C@H]1CC[C@@]2(C)C(CC[C@]3(C)C2CC=C2C4CC(C)(C)CC[C@]4(C(=O)N4CCCNCC4)CC[C@]23C)C1(C)C (stereo partly drawn) [compound 10, 3β-Acetyloxy-28-(1-homopiperazinyl)-olean-12-en-28-one] | – | 2.2 ± 0.1 | 1.8 ± 0.2 | 1.6 ± 0.1 | 1.9 ± 0.9 | 1.9 ± 0.1 | – | – | – | – | – | – | – |
| – | CC(=O)O[C@H]1CC[C@@]2(C)C(CC[C@]3(C)C2CC=C2C4CC(C)(C)CC[C@]4(C(=O)N4CCCN(C(=O)c5ccccc5C5=c6cc7c8c(c6Oc6c5cc5c9c6CCCN9CCC5)CCC[N+]=8CCC7)CC4)CC[C@]23C)C1(C)C (some centres unmarked) [compound 26] | – | 0.07 ± 0.03 | 0.26 ± 0.05 | 0.12 ± 0.03 | 0.07 ± 0.01 | 0.13 ± 0.03 | – | – | 0.1 ± 0.05 | 0.05 ± 0.01 | – | – | – |
| – | CC(=O)O[C@H]1CC[C@@]2(C)C(CC[C@]3(C)C2CC=C2C4[C@@H](C)[C@H](C)CC[C@]4(C(=O)O)CC[C@]23C)C1(C)C (stereo partly drawn) [compound 3, 3β-Acetyloxy-urs-12-en-oic Acid] | 10.7 ± 0.8 | 8.3 ± 0.9 | 16.4 ± 1.7 | 12.1 ± 1.2 | 11.4 ± 1.4 | 17.3 ± 1.5 | – | – | – | – | – | – | – |
| – | CC(=O)O[C@H]1CC[C@@]2(C)C(CC[C@]3(C)C2CC=C2C4CC(C)(C)CC[C@]4(C(=O)O)CC[C@]23C)C1(C)C (stereo partly drawn) [compound 2, 3β-Acetyloxy-olean-12-en-oic Acid] | 11.8 ± 0.9 | 9.4 ± 0.5 | – | 12.9 ± 1.9 | – | – | – | – | – | – | 17.5 ± 1.5 | 13 ± 1.1 | 20.5 ± 1.7 |
| – | CC(=O)O[C@H]1CC[C@@]2(C)C(CC[C@]3(C)C2CC=C2C4[C@@H](C)[C@H](C)CC[C@]4(C(=O)N4CCCN(C(=O)c5ccccc5C5=c6cc7c8c(c6Oc6c5cc5c9c6CCCN9CCC5)CCC[N+]=8CCC7)CC4)CC[C@]23C)C1(C)C (some centres unmarked) [compound 27] | – | 0.05 ± 0.02 | 0.24 ± 0.03 | 0.08 ± 0.03 | 0.06 ± 0.04 | 0.08 ± 0.02 | – | – | 0.09 ± 0.06 | 0.04 ± 0.01 | – | – | – |
| – | C[C@H]1[C@H](C)CC[C@]2(C(=O)O)CC[C@]3(C)C(=CC[C@@H]4[C@@]5(C)CC[C@H](O)C(C)(C)[C@@H]5CC[C@]43C)[C@H]12 [UA, ursolic acid, reference compound] | 18.2 ± 1.7 | – | – | – | 15.4 ± 1 | – | – | – | – | – | – | – | – |
| – | CC1(C)CC[C@]2(C(=O)O)CC[C@]3(C)C(=CC[C@@H]4[C@@]5(C)CC[C@H](O)C(C)(C)[C@@H]5CC[C@]43C)[C@@H]2C1 [OA, oleanolic acid, reference compound] | > 30 | > 30 | > 30 | > 30 | > 30 | > 30 | – | – | – | – | – | – | – |
